Experimental data from patent publication US10344071B2, “Identification of novel anti-fibrotic peptide in C-terminal region of the MET receptor tyrosine kinase” (MUSC Foundation for Research Development, priority 2015, dated 2019).

Key:
Type in all cases: cell-based, human
[1] = system: fetal lung fibroblasts (MRC5 immortal cell line); assay: TGFβ-induced collagen type I, immunoblot; settings: peptide 1 μg/ml, TGFβ 5 ng/ml, 24 h
Procedure: FIG. 11, comprising FIG. 11A and FIG. 11B, depicts the effect of M10 on TGFβ-induced collagen type 1. FIG. 11A depicts MRC5 cells, normal lung fibroblasts, and normal skin fibroblasts were incubated with or without M10, scrambled peptide (Scr), and TGFβ for 48 hours in serum-free medium. Cell extracts were immunoblotted with anticollagen type I and anti-β-actin antibodies. FIG. 11B depicts densitometric analysis of collagen type I immunoblots from 2 independent experiments.
FIG. 17A depicts 1403 and 1404 peptides inhibit collagen in TGFβ-stimulated LF. Cells were incubated with and without TGFβ (5 ng/ml), 1403, and 1404 peptides (1 μg/ml) or scrambled peptide (Control, Co) for 24 h and analyzed by immunoblotting using anti-collagen type I antibody. […] AEC were incubated with or without 1403, 1404, or scrambled (Control) peptides, FasL, and cisplatin for 24 hours and analyzed by Caspase 3 Assay from Abcam.
Cells were collected and analyzed by immunoblotting as previously described (Bogatkevich et al., J Biol Chem. 2001, 276:45184-45192; Bogatkevich et al., Arthritis Rheum. 2007, 56:3468-3477). The phosphorylation of Smad2 was analyzed by Western blot using anti-phospho-Smad2 antibody in accordance with the manufacturer's instructions (Cell Signaling Technology). […] Total amount of Smad2 was evaluated by re-blotting with anti-Smad2 polyclonal antibody. […]

[2] = system: alveolar epithelial cells (AEC, A549); assay: Caspase 3 Assay, FasL- and cisplatin-induced apoptosis; settings: for FasL-induced apoptosis (caspase 3 activity) / cisplatin-induced apoptosis (caspase 3 activity): AEC, 24 hours, peptide treatment, p<0.01; for apoptosis, level of active caspase 3: AEC incubated 24 h with the inducer
Procedure: FIG. 7 depicts alveolar epithelial cells (AEC) transfected with MET WT but not with MET D1398G are protected from FasL- and cisplatin-induced apoptosis. Transfected AEC were incubated with or without FasL or cisplatin for 24 hours, collected with lysis buffer and analyzed by Caspase 3 Assay as detailed in Materials and Methods.
FIG. 17A depicts 1403 and 1404 peptides inhibit collagen in TGFβ-stimulated LF. Cells were incubated with and without TGFβ (5 ng/ml), 1403, and 1404 peptides (1 μg/ml) or scrambled peptide (Control, Co) for 24 h and analyzed by immunoblotting using anti-collagen type I antibody. FIG. 17B depicts 1403 and 1404 but not M10 protect AEC from FasL- and cisplatin-induced apoptosis. AEC were incubated with or without 1403, 1404, or scrambled (Control) peptides, FasL, and cisplatin for 24 hours and analyzed by Caspase 3 Assay from Abcam.
Caspase 3 Assay Kit (Abcam, Cambridge, Mass.) was used to detect apoptosis in cultured cells. The cells were plated on 100 mm plates, transfected with MET WT or D1398G, and treated with or without FasL and cisplatin for 24 h. Cell lysates were collected in accordance to with the manufacturer's instructions, transferred to a 96-well plate, and incubated with DEVD-p-NA substrate at 37° C. for 2 hours followed by reading the absorbance at 405 nm on a spectrophotometer.
A cell-protective effect of HGF and MET have been reported in AEC in numerous studies (Crestani, et al., Proc Am Thorac Soc, 2012, 9(3):158-63 and Gazdhar, et al., Hum Gene Ther, 2013, 24(1):105-16). To investigate if the D1398G mutation interferes with anti-apoptotic effects of MET in AEC, apoptosis of AEC with FasL and cisplatin and measured caspase 3 activity in cell lysates was induced. […] In contrast, AEC transfected with the MET D1398G mutant were not protected from FasL- and cisplatin-induced apoptosis.
To investigate if the 1403 and 1404 peptides have anti-apoptotic effects in AEC, apoptosis of AEC was induced with FasL and cisplatin and measured caspase 3 activity in cell lysates. […] In contrast, AEC treated with scrambled peptide were not protected from FasL- and cisplatin-induced apoptosis (FIG. 17B).

caspase-3 = assay: Cisplatin-induced cleaved caspase-3, Western blot; settings: for cleaved or active caspase-3 by Western blot: 50 μM for 24 h
Procedure: FIG. 5, comprising FIG. 5A and FIG. 5B, depicts effects of cisplatin in lung fibroblasts (LF) and alveolar epithelial cells (AEC) transfected with MET WT and MET D1398G. FIG. 5A depicts transfected cells were incubated with or without cisplatin for 24 hours. The cells were collected with lysis buffer and analyzed by Western blot with indicated antibodies. FIG. 5B depicts densitometric analysis of uncleaved MET detected by C12 antibody. Values are the mean and SD from three independent experiments.

Molecule: DDEVDTRPAS (1403 Peptide) [compound 1403, M5 peptide with added caspase-3 cleavage sites and an additional N-terminal aspartic acid]
- levels of TGFβ-induced collagen [1]: significantly reduced
- FasL-induced apoptosis (caspase 3 activity) [2]: significantly reduced apoptosis
- cisplatin-induced apoptosis (caspase 3 activity) [2]: significantly reduced apoptosis

Molecule: N.N.[Cl][Pt][Cl] [cisplatin]
- apoptosis, level of active caspase 3 [2]: resulted in apoptosis reflected by an increase in the level of active caspase 3
- cleaved caspase by Western blot (caspase-3; AEC and LF, 100 μM): yielded cleaved caspase not only in AEC but also in LF
- cleaved or active caspase-3 by Western blot (caspase-3; AEC): detectable
- cleaved or active caspase-3 by Western blot (caspase-3; LF): not in LF

Molecule: DEVDTRPAS (1404 Peptide) [compound 1404, M5 peptide with added caspase-3 cleavage sites]
- levels of TGFβ-induced collagen [1]: significantly reduced
- FasL-induced apoptosis (caspase 3 activity) [2]: significantly reduced apoptosis
- cisplatin-induced apoptosis (caspase 3 activity) [2]: significantly reduced apoptosis

B1: FasL: inducer of apoptosis in AEC (protein, UniProt P48023 130-281, looked up)
Tumor necrosis factor ligand …: QIGHPSPPPEKKELRKVAHLTGKSNSRSMPLEWEDTYGIVLLSGVKYKKGGLVINETGLYFVYSKVYFRGQSCNNLPLSHKVYMRNSKYPQDLVMMEGKMMSYCTTGQMWARSSYLGAVFNLTSADHLYVNVSELSLVNFEESQTFFGLYKL
- apoptosis, level of active caspase 3 [2]: resulted in apoptosis reflected by an increase in the level of active caspase 3
